According to paper PMC7344389, “Discovery of Anti-Amoebic Inhibitors from Screening the MMV Pandemic Response Box on Balamuthia mandrillaris, Naegleria fowleri, and Acanthamoeba castellanii” (Pathogens, 2020):
Where two headings read alike, the source gives them in different places.

Assays:
Type in all cases: cell-based
[1] = system: Naegleria fowleri trophozoites; assay: CellTiter-Glo 2.0 trophocidal assay, N. fowleri
Experimental: Pathogenic Naegleria fowleri (ATCC 30215), a clinical isolate obtained from a child in Adelaide, Australia, that died of PAM in 1969 was previously purchased from the American Type Culture Collection (ATCC). Trophozoites were routinely grown axenically at 34 °C in Nelson’s complete medium (NCM) in non-vented 75 cm^2 tissue culture flasks (Olympus, El Cajon, CA, USA), until the cells were 80–90% confluent. For sub-culturing, cells were placed on ice to detach the cells from the culture flasks. The cells were collected by centrifugation at 4000 rpm at 4 °C. Complete NCM media is produced by the addition of 10% FBS and 125 μg of penicillin/streptomycin antibiotics.
The trophocidal activity of compounds was assessed using the CellTiter-Glo 2.0 luminescent viability assay (Promega, Madison, WI, USA), as previously described. Trophozoites were routinely cultured as described above and only logarithmic trophozoites were used. In brief, B. mandrillaris, N. fowleri, or A. castellanii trophozoites cultured in their corresponding media were seeded at 16,000, 3000, or 1440 cells/well into white 96-well plates (Costar 3370), respectively. Initially all compounds were assessed in a single-point drug screen at 10 and 1 μM, as previously described. […] Control wells were supplemented with 0.1% (10 μM screening plate) or 0.01% (1 μM screening plate) DMSO, as the negative controls, or 12.5 μM of chlorhexidine, as the positive control. Following the single-point assays at 10 and 1 µM, we prioritized compounds for progression to IC50 determinations. […] We used this process to reduce the number of potential false positives. Drugs were cherry-picked, dissolved in the media specific to each parasite, and assessed in twofold serial dilutions from the highest concentration of 10 μM. All assays were incubated at each of the parasites’ representative growth temperatures, described above, for 72 h. At the 72 h time point, 25 μL of CellTiter-Glo 2.0 reagent was added to all wells of the 96-well plates using the Biomek NX^P automated workstation. The plates were protected from light and contents were mixed using an orbital shaker at 300 rpm at room temperature for 2 min to induce cell lysis. After shaking, the plates were equilibrated at room temperature for 10 min to stabilize the luminescent signal. The adenosine triphosphate (ATP) luminescent signal (relative light units; RLUs) was measured at 490 nm with a SpectraMax I3X plate reader (Molecular Devices, Sunnyvale, CA, USA). Drug inhibitory concentration (IC50) curves were generated using total ATP RLUs, where controls were calculated as the average of replicates using the Levenberg–Marquardt algorithm, using DMSO as the normalization control, as defined in Collaborative Drug Discovery Inc. (CDD) Vault (Burlingame, CA, USA). Values reported are from a minimum of two biological replicates with standard deviations.

[2] = system: A549 human lung carcinoma cells; assay: MTS cytotoxicity counter-screen of reconfirmed hits
Experimental: Cytotoxicity of the reconfirmed hits was determined by using the CellTiter 96® AQueous One Solution Cell Proliferation Assay (Promega, Madison, WI) on A549 human lung carcinoma cells. A549 cells were seeded at a concentration of 1.6 × 10^4 cells/mL in 96-well tissue culture plates (Corning, NY, USA), in the presence of serially diluted active hits against B. mandrillaris, N. fowleri, or A. castellanii. Positive control wells contained cells and media; negative control wells contained 0.1% DMSO. Cells were grown in F12K medium supplemented with 10% FBS and 1% gentamycin (all supplied from Fisher Scientific, Atlanta, GA, USA). The inhibitor concentration started at 10 µM and was diluted in doubling dilutions to assess cytotoxicity in comparison to the respective free-living amoeba. Total volume of each well was 100 µL and plates were incubated at 37 °C, 5% CO2 for 72 h. Next, 4 h before the time-point, 20 µL of MTS (Promega, Madison, WI, USA) was added to each well. Inhibition of A549 growth was assessed at the 72 h time-point measuring the optical density (OD) values at 490 nm using a SpectraMax I3X plate reader (Molecular Devices, Sunnyvale, CA, USA). Curve fitting using non-linear regression was carried out using the average of replicates and the Levenberg–Marquardt algorithm, using DMSO as the normalization control, as defined in CDD Vault (Burlingame, CA, USA).

[3] = system: Acanthamoeba castellanii trophozoites; assay: CellTiter-Glo 2.0 trophocidal assay, A. castellanii; settings: for IC50: CTG method, 72 h, duplicate twofold serial dilutions from 10 µM, mean ± SD
Experimental: This isolate was also purchased from ATCC. Trophozoites were routinely grown axenically at 27 °C in Protease Peptone-Glucose Media (PG) in non-vented 75 cm^2 tissue culture flasks (Olympus, El Cajon, CA, USA), until the cells were 80–90% confluent. For sub-culturing, cells were mechanically harvested to detach the cells from the culture flasks. The cells were collected by centrifugation at 4000 rpm at 4 °C.
The trophocidal activity of compounds was assessed using the CellTiter-Glo 2.0 luminescent viability assay (Promega, Madison, WI, USA), as previously described. Trophozoites were routinely cultured as described above and only logarithmic trophozoites were used. […] Initially all compounds were assessed in a single-point drug screen at 10 and 1 μM, as previously described. […] We used this process to reduce the number of potential false positives. Drugs were cherry-picked, dissolved in the media specific to each parasite, and assessed in twofold serial dilutions from the highest concentration of 10 μM. All assays were incubated at each of the parasites’ representative growth temperatures, described above, for 72 h. At the 72 h time point, 25 μL of CellTiter-Glo 2.0 reagent was added to all wells of the 96-well plates using the Biomek NX^P automated workstation. The plates were protected from light and contents were mixed using an orbital shaker at 300 rpm at room temperature for 2 min to induce cell lysis. After shaking, the plates were equilibrated at room temperature for 10 min to stabilize the luminescent signal. The adenosine triphosphate (ATP) luminescent signal (relative light units; RLUs) was measured at 490 nm with a SpectraMax I3X plate reader (Molecular Devices, Sunnyvale, CA, USA). Drug inhibitory concentration (IC50) curves were generated using total ATP RLUs, where controls were calculated as the average of replicates using the Levenberg–Marquardt algorithm, using DMSO as the normalization control, as defined in Collaborative Drug Discovery Inc. (CDD) Vault (Burlingame, CA, USA). Values reported are from a minimum of two biological replicates with standard deviations.

[4] = Naegleria fowleri, 72 h, CTG method, 72 h, duplicate twofold serial dilutions from 10 µM, mean ± SD; read-out: N. fowleri Mean IC50 (µM) ± SD
[5] = Homo sapiens, A549, MTS assay, 72 h, doubling dilutions from 10 µM, read-out: A549 Mean IC50
[6] = CTG method, 72 h, duplicate twofold serial dilutions from 10 µM, mean ± SD; read-out: N. fowleri Mean IC50 (µM) ± SD
[7] = MTS assay, 72 h, doubling dilutions from 10 µM, read-out: A549 Mean IC50

Row | Compound | IC50 [1, 4] | Selectivity Index (A549 IC50/N. fowleri IC50) ([1]; SI = (IC50 A549)/(IC50 Amoeba)) | IC50 [2, 5] | IC50 [1, 6] | IC50 [2, 7] | other results
1 | CC[C@H]1OC(=O)[C@H](C)[C@@H](O[C@H]2C[C@@](C)(OC)[C@@H](O)[C@H](C)O2)[C@H](C)[C@@H](O[C@@H]2O[C@H](C)C[C@H](N(C)C)[C@H]2O)[C@](C)(O)C[C@@H](C)C(=O)[C@H](C)[C@@H](O)[C@]1(C)O [Erythromycin] | 0.24 ± 0.02 µM | ≥42.6 | > 10 µM |  |  | Selectivity Index (A549 IC50/N. fowleri IC50) ([1]; SI = (IC50 A549)/(IC50 Amoeba); listed as erythromycin): ≥ 10; potency against N. fowleri, in words ([1]; dose-response, CTG): nanomolar potency
2 | NC(=S)N/N=C/c1ncccc1N [Triapine] | 4 ± 0.1 µM | 0.88 | 3.5 µM |  |  | 
3 | Cc1cc(C2CCCCC2)n(O)c(=O)c1 [Ciclopirox] | 7.5 ± 1.4 µM | ≥1.33 | > 10 µM |  |  | 
4 | C=CCN(C(=O)OCc1ccc([N+](=O)[O-])cc1)C1CCN(CC[C@](C)(CN(C)S(=O)(=O)c2ccccc2)c2ccccc2)CC1 [MMV1782214] |  |  |  | 7.9 µM | > 10 µM | 
5 | C=C[C@]1(C)C[C@@H](OC(=O)CS[C@@H]2C[C@H]3CC[C@@H](C2)N3C)[C@]2(C)[C@H](C)CC[C@]3(CCC(=O)[C@H]32)[C@@H](C)[C@@H]1O [Retapamulin] |  | ≥8.97 | > 10 µM | 1.12 ± 0.28 µM |  | IC50 ([1]; CTG method, 72 h, duplicate twofold serial dilutions from 10 µM, mean ± SD; listed as repatamulin; read-out: N. fowleri Mean IC50 (µM) ± SD): ≤ 10 µM
6 | OCCC#Cc1nc(-c2ccc(F)cc2)c(-c2ccncc2)n1CCCc1ccccc1 [RWJ-67657] | 5.35 ± 0.35 µM | ≥1.87 | > 10 µM |  |  | 
7 | O=C(Nc1cccc(C2=NCCN2)c1)c1ccc(-c2ccc(C(=O)Nc3cccc(C4=NCCN4)c3)cc2)cc1 [MMV1580853] |  |  |  | 4.95 ± 2.55 µM | > 10 µM | 
8 | Nc1nc(Nc2ccc3nc(-c4ccc(F)cc4)cc(N)c3c2)cc(-c2ccccc2)n1 [MMV1593541] |  |  |  | 5.3 ± 0.6 µM | 2.3 µM | 
9 | Cn1cncc1[C@@](N)(c1ccc(Cl)cc1)c1ccc2c(c1)c(-c1cccc(Cl)c1)cc(=O)n2C [Tipifarnib] |  | 6.50 | 8 µM |  |  | IC50 ([1]; Naegleria fowleri, 72 h, read-out: N. fowleri Mean IC50 (µM) ± SD): 1.23 ± 0.27 µM
10 | CN1c2ccc(Cl)cc2N(c2ccccc2)C(=O)c2cn(Cc3ccc(CN4CCOCC4)cc3)nc21 [MMV1782222] |  |  |  | 5.4 µM | > 10 µM | 
11 | N#Cc1c(F)c(Cl)c(NCc2ccccc2)c(C#N)c1F [MMV1582496] |  |  |  |  | > 10 µM | IC50 [3]: 0.61 ± 0.35 µM; potency against A. castellanii, in words ([3]; dose-response, CTG): nanomolar potency
12 | CC(=O)N1CCN(c2ccc(OCC3COC(Cn4ccnc4)(c4ccc(Cl)cc4Cl)O3)cc2)CC1 (stereo not shown) [Ketoconazole] |  |  | > 10 µM |  |  | IC50 [3]: 1.24 ± 0.8 µM; IC50 ([3]; listed as ketoconazole): ≤ 10 µM
13 | CCCCC(CC)CNC(=N)NC(=N)NCCCCCCNC(=N)NC(=N)NCC(CC)CCCC (stereo not shown) [Alexidine] |  |  | 2.1 µM |  |  | IC50 [3]: 2.4 ± 1.56 µM; IC50 ([3]; listed as alexidine): ≤ 10 µM; Selectivity Index (A549 IC50/A. castellanii IC50) ([3]; SI = (IC50 A549)/(IC50 Amoeba)): 0.88
14 | CC[C@@]1(O)C(=O)OCc2c1cc1n(c2=O)Cc2cc3c([N+](=O)[O-])cccc3nc2-1 [Rubitecan] | 2.3 ± 0.2 µM | 0.20 | 0.47 µM |  |  | 
15 | COc1ccc2sc3c(c2c1)NC(C)CNC3=O (stereo not shown) [MMV1782115] |  |  |  | 9.35 ± 0.35 µM | 5.8 µM | 
16 | NC[C@H]1OB(O)c2c(OCCCO)cccc21 [Epetraborole] | 2.6 ± 0.3 µM | ≥3.85 | > 10 µM |  |  | 
17 | N#C/C(=C1/SC[C@@H](c2ccc(Cl)cc2Cl)S1)n1ccnc1 [Luliconazole] | 0.02 ± 0.01 µM | ≥556 | > 10 µM |  |  | Selectivity Index (A549 IC50/N. fowleri IC50) ([1]; SI = (IC50 A549)/(IC50 Amoeba); listed as luliconazole): ≥ 10; potency against N. fowleri, in words ([1]; dose-response, CTG): nanomolar potency
18 | C[C@H](c1cccc2ccccc12)N(C)Cc1ccccc1 [MMV1782221] |  |  |  |  | > 10 µM | 
19 | CN(C)[C@@H]1C(O)=C(C(N)=O)C(=O)[C@@]2(O)C(O)=C3C(=O)c4c(O)c(NC(=O)CN5CCCC5)cc(F)c4C[C@H]3C[C@@H]12 [Eravacycline] | 2.75 ± 0.35 µM | ≥3.64 | > 10 µM |  |  | 
20 | Nc1nc(N)c2c(Sc3ccccc3)cccc2n1 [MMV021759] |  |  |  |  | > 10 µM | 
21 | Nc1nc(F)nc2c1ncn2[C@@H]1O[C@H](CO)[C@@H](O)[C@@H]1O [Fludarabine] |  | <2.83 |  |  |  | IC50 ([1]; Naegleria fowleri; CTG method, 72 h, duplicate twofold serial dilutions from 10 µM, mean ± SD; read-out: N. fowleri Mean IC50 (µM) ± SD): 0.11 ± 0.03 µM; potency against N. fowleri, in words ([1]; dose-response, CTG): nanomolar potency; IC50 ([2]; Homo sapiens, A549, 72 h, read-out: A549 Mean IC50 (µM)): < 0.31 µM
22 | CCOC(=O)Nc1cc(NC(C)CC(C)CN(CC)CC)c2nc(-c3ccccc3)c(-c3ccccc3)nc2n1 (stereo not shown) [MMV1633967] |  |  |  | 8.2 ± 1 µM | > 10 µM | 
23 | Cc1cccc(C)c1C(=O)Nc1nc(-c2ccccn2)cc2ccccc12 [MMV1581558] |  |  |  |  | > 10 µM | 
24 | CCC(C)NCC(O)Cn1c2ccc(Cl)cc2c2cc(Cl)ccc21 (stereo not shown) [MMV1578570] |  |  |  | 6.4 ± 0.9 µM | > 10 µM | 
25 | O=c1cc(NCCCN[C@@H]2CCOc3c(Br)cc(Br)cc32)[nH]c2ccsc12 [MMV1578884] | 0.08 ± 0.02 µM | ≥128 | > 10 µM |  |  | Selectivity Index (A549 IC50/N. fowleri IC50) ([1]; SI = (IC50 A549)/(IC50 Amoeba); listed as CRS-3123): ≥ 10; potency against N. fowleri, in words ([1]; dose-response, CTG): nanomolar potency
26 | Oc1c(C(Nc2nc3ccccc3s2)c2ccc(OC(F)F)cc2)ccc2cccnc12 (stereo not shown) [MMV019724] |  |  |  | 6 ± 0.7 µM | 6.2 µM | 
